Activity calls are given as the source filed them. For most assays here, no stated cut-off is given here; in the data, actives have a measured IC50 and inactives only a lower limit.
Key:
[1] = biological target: T1, Rac GTPase-activating protein 1 (Homo sapiens, UniProt Q9H0H5); assay: blockers of MgcRacGAP-driven Rac1 GTP hydrolysis – biochemical, ADP Hunter fluorescence, primary and confirmatory, confirmation (AID 624330); type: functional
T1 sequence (Q9H0H5 whole entry): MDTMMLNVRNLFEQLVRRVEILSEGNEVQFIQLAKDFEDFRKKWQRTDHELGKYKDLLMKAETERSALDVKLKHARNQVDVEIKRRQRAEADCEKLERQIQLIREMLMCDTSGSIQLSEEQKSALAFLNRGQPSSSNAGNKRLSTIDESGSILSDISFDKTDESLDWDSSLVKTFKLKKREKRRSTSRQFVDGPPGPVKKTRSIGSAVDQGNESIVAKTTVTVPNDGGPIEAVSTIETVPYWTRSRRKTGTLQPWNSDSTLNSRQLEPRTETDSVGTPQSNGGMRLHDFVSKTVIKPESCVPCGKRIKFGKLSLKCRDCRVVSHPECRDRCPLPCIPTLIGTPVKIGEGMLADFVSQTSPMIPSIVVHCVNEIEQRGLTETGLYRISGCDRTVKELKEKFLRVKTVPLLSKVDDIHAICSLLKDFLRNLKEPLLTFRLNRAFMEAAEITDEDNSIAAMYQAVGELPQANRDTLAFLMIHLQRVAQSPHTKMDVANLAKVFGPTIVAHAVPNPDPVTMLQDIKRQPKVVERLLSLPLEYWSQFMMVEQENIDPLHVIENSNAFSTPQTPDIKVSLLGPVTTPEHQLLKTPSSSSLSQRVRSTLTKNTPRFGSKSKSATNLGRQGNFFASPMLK

Prothrombin = Prothrombin (Bos taurus, UniProt P00735); assay: thrombin protease inhibitors – biochemical, fluorescence polarization, uHTS hits, dose response (AID 602369); type: functional
[2] = viability loss in HeLa cells – cytotoxicity control for MgcRacGAP inhibitor project, dose response (AID 624300); type: functional
Caspase-3 = biological target: T2, Caspase-3 (Homo sapiens, UniProt P42574); type: functional;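 further: Dose-response selectivity test against caspase-3 for candidate inhibitors of sentrin-specific proteases (SENPs)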
T2 sequence (P42574 whole entry): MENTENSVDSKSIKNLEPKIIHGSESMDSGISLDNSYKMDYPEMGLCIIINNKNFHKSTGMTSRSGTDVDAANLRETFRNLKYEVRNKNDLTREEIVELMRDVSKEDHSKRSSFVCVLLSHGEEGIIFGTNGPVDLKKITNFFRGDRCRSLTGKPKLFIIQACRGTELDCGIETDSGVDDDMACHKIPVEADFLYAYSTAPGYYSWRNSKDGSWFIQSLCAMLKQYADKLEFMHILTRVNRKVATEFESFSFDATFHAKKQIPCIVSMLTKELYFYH

[3] = biological target: T3, Sentrin-specific protease 7 (Homo sapiens, UniProt Q9BQF6); type: functional;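 further: Luminescence-based dose-response confirmation of ultra-high-throughput screening hits, measuring inhibition of SENP7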
T3 sequence (Q9BQF6 whole entry): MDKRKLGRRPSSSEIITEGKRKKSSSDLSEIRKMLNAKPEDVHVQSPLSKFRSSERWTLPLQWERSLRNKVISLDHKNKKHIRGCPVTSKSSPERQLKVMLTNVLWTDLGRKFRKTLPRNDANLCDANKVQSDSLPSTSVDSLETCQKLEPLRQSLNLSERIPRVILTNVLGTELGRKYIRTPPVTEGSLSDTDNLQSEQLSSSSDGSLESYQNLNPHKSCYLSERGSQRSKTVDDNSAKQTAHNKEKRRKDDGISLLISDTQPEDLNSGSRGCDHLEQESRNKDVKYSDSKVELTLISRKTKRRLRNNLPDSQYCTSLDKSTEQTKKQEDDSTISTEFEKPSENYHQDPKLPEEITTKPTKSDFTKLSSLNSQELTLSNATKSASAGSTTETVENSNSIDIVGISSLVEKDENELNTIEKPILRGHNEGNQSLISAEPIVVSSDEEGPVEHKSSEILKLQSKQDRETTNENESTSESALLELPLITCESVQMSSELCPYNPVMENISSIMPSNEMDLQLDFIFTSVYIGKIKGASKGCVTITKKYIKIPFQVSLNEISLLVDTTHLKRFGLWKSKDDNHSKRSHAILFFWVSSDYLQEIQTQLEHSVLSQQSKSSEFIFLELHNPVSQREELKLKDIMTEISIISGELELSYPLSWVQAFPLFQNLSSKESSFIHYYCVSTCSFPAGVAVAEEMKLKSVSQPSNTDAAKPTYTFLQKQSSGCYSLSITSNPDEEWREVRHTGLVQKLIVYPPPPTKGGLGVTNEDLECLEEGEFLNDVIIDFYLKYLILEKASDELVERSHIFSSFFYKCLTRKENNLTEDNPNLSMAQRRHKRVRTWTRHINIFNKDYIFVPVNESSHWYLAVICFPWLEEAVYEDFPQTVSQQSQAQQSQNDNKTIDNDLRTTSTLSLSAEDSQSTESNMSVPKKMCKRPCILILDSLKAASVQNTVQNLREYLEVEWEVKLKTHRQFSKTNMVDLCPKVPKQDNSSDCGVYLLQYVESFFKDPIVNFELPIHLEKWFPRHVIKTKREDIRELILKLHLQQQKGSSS

[4] = biological target: T4, Sentrin-specific protease 8 (Homo sapiens, UniProt Q96LD8); type: functional;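 further: luminescence read-out of SENP8 inhibition, dose-response confirmation following an ultra-high-throughput screen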
T4 sequence (Q96LD8 whole entry): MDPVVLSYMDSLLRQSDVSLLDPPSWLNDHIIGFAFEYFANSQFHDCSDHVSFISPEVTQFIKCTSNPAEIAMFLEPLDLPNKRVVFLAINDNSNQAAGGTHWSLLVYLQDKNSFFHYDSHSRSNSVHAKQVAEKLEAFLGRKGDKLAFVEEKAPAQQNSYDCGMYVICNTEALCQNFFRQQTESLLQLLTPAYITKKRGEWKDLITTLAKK

[5] = biological target: Dual specificity tyrosine-phosphorylation-regulated kinase 1A (Rattus norvegicus, UniProt Q63470); type: biochemical, Homo sapiens

O=[N+]([O-])c1ccc(N/N=C/c2ccc[nH]2)cc1
active: IC50 [1] 44.5 µM | IC50 (Prothrombin) 9.84 µM | CC50 [2] 100 µM

CC(=O)N(/N=C1\Sc2ccccc2C1=O)c1cccc(C)c1
active: IC50 (Caspase-3) 65.8 µM | IC50 [3] 13.8 µM | IC50 [4] 11.7 µM | AC50 [5] 28.1 µM
